Experimental data published in patent CN108290841A, “具有荧光性的类视黄醇x受体结合性分子及其用途” (Okayama University NUC, priority 2015, dated 2017).
Blank lines part the entries; values can stand above or below the compound they belong to.

Columns and labels:
[1] = molecular target: T1, RXRα protein (ligand binding domain (LBD)) [RXRα蛋白质(配体结合域(LBD))] (Homo sapiens, UniProt P19793); assay: RXR binding of RXR ligands evaluated with compound 10 as fluorescent probe (Example 13); conditions: RXRα-LBD 100 nM, compound 10 100 nM; from EC50 by Cheng-Prusoff equation
T1 construct: 关于RXRα蛋白质(配体结合域(LBD)),将Active Motif社制的物质以100nM使用; purchased Active Motif
T1 sequence (P19793 227-458 limits assumed): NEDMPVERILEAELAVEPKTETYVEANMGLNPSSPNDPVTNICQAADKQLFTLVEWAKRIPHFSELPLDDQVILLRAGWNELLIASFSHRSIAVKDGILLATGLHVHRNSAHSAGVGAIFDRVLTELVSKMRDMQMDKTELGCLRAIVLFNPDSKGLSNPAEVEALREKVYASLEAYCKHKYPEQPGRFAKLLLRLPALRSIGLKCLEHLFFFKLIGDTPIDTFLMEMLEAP

[2] = molecular target: T1, RXRα protein (ligand binding domain (LBD)) [RXRα蛋白质(配体结合域(LBD))]; assay: Detection of RXR binding of RXR ligands with compound 44 (Example 15); conditions: test compound 1 μM, compound 44 30 nM, RXRα-LBD 100 nM
[3] = molecular target: T2, full-length RXRα protein [全长RXRα蛋白质] (Homo sapiens, UniProt P19793); assay: Combined assay: RXR activation by fluorescence polarization of fluorescein-PGC1a coactivator peptide (Example 16); type: biochemical; conditions: test compound 10 μM, full-length RXRα 3 μM, compound 10 3 μM, fluorescein-PGC1a 30 nM
T2 construct: 全长RXRα蛋白质使用3μM
T2 sequence (P19793 1-462): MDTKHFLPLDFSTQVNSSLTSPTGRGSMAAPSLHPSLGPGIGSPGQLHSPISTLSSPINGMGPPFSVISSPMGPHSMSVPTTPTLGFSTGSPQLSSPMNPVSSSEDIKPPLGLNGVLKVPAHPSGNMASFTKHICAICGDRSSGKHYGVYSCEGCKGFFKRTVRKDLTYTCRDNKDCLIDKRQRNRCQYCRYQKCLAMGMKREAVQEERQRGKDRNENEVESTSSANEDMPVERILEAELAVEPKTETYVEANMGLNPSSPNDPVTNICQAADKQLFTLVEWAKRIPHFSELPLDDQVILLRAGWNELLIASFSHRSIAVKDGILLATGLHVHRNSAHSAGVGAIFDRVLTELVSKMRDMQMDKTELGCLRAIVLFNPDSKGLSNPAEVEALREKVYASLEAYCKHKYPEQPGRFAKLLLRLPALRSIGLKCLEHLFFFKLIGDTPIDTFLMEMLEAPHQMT

[4] = Blood concentration after oral administration to mice (Example 17); type: in vivo; conditions: mouse (male ICR, 6 weeks)
NFκB = conditions: LPS 1 ng/mL, 24 h; relative to LPS without test compound as 100%
[5] = test system: retinoid X receptor (RXR) [类视黄醇X受体]; assay: Luciferase reporter gene assay for RXR transcriptional activation (Example 9); type: cell-based; conditions: COS-1 cells; for RXR agonist activity: relative to transcriptional activity with 1 μM bexarotene set to 1

Structure (SMILES): CCCCCCOc1cc2c(cc1N(C)c1ncc(C(=O)O)cn1)C(C)(C)CCC2(C)C [PA452]
Ki [1]: 0.108 µM
fluorescence polarization of fluorescein-PGC1a [3]: 减少

Structure (SMILES): Cc1cc2c(cc1-c1cc3cc(C(=O)O)c(=O)oc3cc1O)C(C)(C)CCC2(C)C [化合物10]
concentration at 0.5 h ([4]; in vivo, 30 mg/kg oral, 0.5 h after administration): ~3000 nM
disappearance from blood ([4]; 30 mg/kg oral, 0.5, 1, 3 and 6 h): 时间依赖性地从血液中消失
SEAP activity / inhibitory activity on NFκB transcriptional activity (NFκB): 抑制SEAP活性,显示对于NFκB的抑制活性

Structure (SMILES): COc1cc2c(cc1-c1cc3cc(C(=O)O)c(=O)oc3cc1O)C(C)(C)CCC2(C)C [化合物23a]
RXR agonist activity [5]: 确认到RXR激动剂活性

Structure (SMILES): CCCOc1cc2c(cc1-c1cc3cc(C(=O)O)c(=O)oc3cc1O)C(C)(C)CCC2(C)C [化合物23b]
RXR agonist activity [5]: 确认到RXR激动剂活性

Continued, values first:

Ki [1]: 0.073 µM
Structure (SMILES): Cc1cc2c(cc1-n1c(C(F)(F)F)nc3cc(C(=O)O)ccc31)C(C)(C)CCC2(C)C [CBTF-PMN]

change of fluorescence intensity of compound 44 by test compound [2]: 荧光强度减少
Structure (SMILES): CCN(c1ccc(C(=O)O)cn1)c1cc(OCC(C)C)c(C(C)C)cc1/C=C/c1ccccc1 [NEt-SB]

RXR antagonist activity ([5]; in the presence of the RXR agonist NEt-TMN (printed for compound 44; others tested similarly)): 确认到RXR拮抗剂活性
Structure (SMILES): CCCCCOc1cc2c(cc1-c1cc3cc(C(=O)O)c(=O)oc3cc1O)C(C)(C)CCC2(C)C [化合物23c]

RXR agonist activity [5]: 确认到RXR激动剂活性
Structure (SMILES): Cc1cc(OC(C)C)c(C(C)C)cc1-c1cc2cc(C(=O)O)c(=O)oc2cc1O [化合物30]
